In article PMC8506144 (Phytochemistry, 2021):
Where two headings read alike, the source gives them in different places.

Assays:
SARS-CoV-2 PLpro [1] = biological target: T1, SARS-CoV-2 PLpro (Severe acute respiratory syndrome coronavirus 2, UniProt P0DTD1); test: biochemical; assay type: biochemical
SARS-CoV-2 PLpro [2] = biological target: T1, SARS-CoV-2 PLpro; test: Pro-ISG15 cleavage assay; assay type: biochemical; conditions: for inhibition at 20 µM / inhibition at 10 µM: read-out: Inhibition rate of PLpro-mediated deISGylation; for Inhibition rate of PLpro-mediated deISGylation: 20 μM compound, 50 nM PLpro, 350 nM pro-ISG15, 10 min, 37 °C
[3] = IC50 (50% inhibition of PLpro anti-proteolytic activity), 50 nM PLpro, 50 μM Z-RLRGG-AMC, 10 mM DTT, pH 8.0, 37 °C, mean ± SD

SMILES | IC50 (SARS-CoV-2 PLpro [1]; [3]) [µM] | Ki (SARS-CoV-2 PLpro [1]) [µM] | inhibition at 20 µM (SARS-CoV-2 PLpro [2]) [%] | inhibition at 10 µM (SARS-CoV-2 PLpro [2]) [%] | Inhibition rate of PLpro-mediated deISGylation (SARS-CoV-2 PLpro [2]) | Inhibition mode (Dixon plot) (SARS-CoV-2 PLpro [1]) | Fold more potent anti-proteolytic activity than di-methylated counterpart 8 (SARS-CoV-2 PLpro [1]; ratio of IC50 values, 7 vs 8) [fold] | IC50 (SARS-CoV-2 PLpro [1]; read-out: IC50 (50% inhibition of PLpro anti-proteolytic activity), pH 8) [µM]
COc1ccc(-c2cc(=O)c3c(O)cc(O)cc3o2)cc1 [Acacetin, acacetin, reference compound] | 91.2 ± 11.3 | – | – | – | – | – | – | –
O=c1cc(-c2ccc(O)cc2)oc2cc(O)cc(O)c12 [Apigenin, apigenin, reference compound] | 75.7 ± 6.4 | – | – | – | – | – | – | –
O=c1cc(-c2ccc(O)c(-c3c(O)cc(O)c4c(=O)cc(-c5ccc(O)cc5)oc34)c2)oc2cc(O)cc(O)c12 [Compound 1, amentoflavone] | 13 ± 1.2 | 9.1 ± 0.7 | 48.1 | – | – | – | – | –
COc1ccc(-c2cc(=O)c3c(O)cc(O)c(-c4cc(-c5cc(=O)c6c(O)cc(O)cc6o5)ccc4O)c3o2)cc1 [Compound 2, podocarpusflavone A] | 43.2 ± 2.9 | 36.5 ± 4.2 | 64.9 to 74.8 | 53.2 to 71.1 | – | – | – | –
COc1cc(O)c2c(=O)cc(-c3ccc(OC)c(-c4c(O)cc(O)c5c(=O)cc(-c6ccc(O)cc6)oc45)c3)oc2c1 [Compound 3, ginkgetin] | 29.8 ± 1.5 | 17.7 ± 1.1 | – | 53.2 to 71.1 | near complete inhibition | – | – | –
COc1ccc(-c2cc(=O)c3c(O)cc(O)c(-c4cc(-c5cc(=O)c6c(O)cc(O)cc6o5)ccc4OC)c3o2)cc1 [Compound 4, isoginkgetin] | 31.2 ± 3.4 | 26.5 ± 2.8 | – | 53.2 to 71.1 | near complete inhibition | – | – | –
O=C1c2c(O)cc(O)cc2O[C@H](c2ccc(O)cc2)[C@H]1c1c(O)cc(O)c2c(=O)cc(-c3ccc(O)c(O)c3)oc12 [Compound 6, morelloflavone] | 36.4 ± 4.8 | 30.7 ± 2.9 | 32.3 to 34.1 | – | – | non-competitive inhibition | – | –
O=c1cc(-c2ccc(Oc3c(O)cc4oc(-c5ccc(O)cc5)cc(=O)c4c3O)cc2)oc2cc(O)cc(O)c12 [Compound 7, hinokiflavone] | 9.5 ± 1.2 | 7.8 ± 0.5 | – | 65.6 to 98 | near complete inhibition | – | 2.8 | –
CC(C)=CCc1cc2c(cc1O)oc(=O)c1c3ccc(O)cc3oc21 [Psoralidin, reference compound] | – | – | – | – | – | – | – | 27.8 ± 2.2
